For one test, the target named is T1, OR5AN1 (Homo sapiens, UniProt Q8NGI8).
T1 construct: expressed in transfected cells; host or cells: HEK293
T1 sequence (Q8NGI8 1-311): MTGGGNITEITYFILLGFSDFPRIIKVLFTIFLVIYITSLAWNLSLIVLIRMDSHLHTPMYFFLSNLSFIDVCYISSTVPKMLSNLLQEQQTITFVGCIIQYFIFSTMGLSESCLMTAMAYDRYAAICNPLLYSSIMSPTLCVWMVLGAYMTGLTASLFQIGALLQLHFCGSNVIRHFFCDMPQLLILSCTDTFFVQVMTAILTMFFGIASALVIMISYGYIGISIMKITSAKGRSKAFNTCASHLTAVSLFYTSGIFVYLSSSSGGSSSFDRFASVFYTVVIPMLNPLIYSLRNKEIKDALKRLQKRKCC
As to the kind of experiment: Luciferase reporter gene assay, OR5AN1-expressing HEK293 cells. The format is cell-based. An excerpt:
(§1) On the basis of sequence information registered in GenBank, genes respectively encoding 370 human olfactory receptors shown in Tables 1-1 and 1-2 and genes respectively encoding the human olfactory receptors OR5AN1, OR10G4 and OR9Q2 (respectively set forth in SEQ ID NOS: 1, 3 and 5) were cloned. Each of the genes was cloned by the PCR using human genomic DNA person (G1521: Promega) as a template. Each gene amplified by the PCR was incorporated into a pENTR vector (Invitrogen) in accordance with the instruction, and was recombined to NotI and AscI sites produced downstream from a Flag-Rho tag sequence on a pME18S vector by using NotI and AscI sites present on the pENTR vector.
(§2) In 1) of Example 1, HEK293 cells on which the 370 human olfactory receptors were respectively expressed were produced. A reaction solution having a composition shown in Table 2 was prepared and allowed to stand still in a clean bench for 15 minutes, and the resultant was added by 4.4 μL per well in a 384-well plate (BioCoat). Subsequently, the HEK293 cells (20×10^4 cells/cm^2) were seeded by 40 μL per well, and the resultant was cultured for 24 hours in an incubator kept at 37° C. and 5% CO2.
(§3) In 2) of Example 1 and Examples 2 and 3, HEK293 cells in which the human olfactory receptor OR5AN1, OR10G4, OR9Q2 or OR1A1 was expressed were produced. A reaction solution having a composition shown in Table 3 was prepared and allowed to stand still in a clean bench for 15 minutes, and the resultant was added by 10 μL per well in a 96-well plate (BioCoat). Subsequently, the HEK293 cells (3×10^5 cells/cm^2) were seeded by 90 μL per well, and the resultant was cultured for 24 hours in an incubator kept at 37° C. and 5% CO2. Cells obtained under conditions for not expressing the olfactory receptor (Mock) were also prepared to be used as a control, and were used similarly in an experiment.
(§4) The olfactory receptor expressed on the HEK293 cells increases the intracellular cAMP amount by activating adenylate cyclase in conjugation with intracellular Gαs. In the measurement of odor response in this study, luciferase reporter gene assay for monitoring the increase of the intracellular cAMP amount as a luminescence value derived from a firefly luciferase gene (fluc2P-CRE-hygro) was employed. Besides, a fused Renilla luciferase (hRluc-CMV) gene was simultaneously transferred downstream of the CMV promoter, so as to be used as an internal standard for correcting the gene transfer efficiency or an error in the number of cells. For measuring the activity of the luciferase, Dual-Glo(™) Luciferase Assay System (Promega) was used, and the measurement was performed in accordance with the operation instruction of the product. Under each of various stimulation conditions, a value fLuc/hRluc obtained by dividing a firefly luciferase-derived luminescence value by a Renilla luciferase-derived luminescence value was calculated. A value obtained by dividing a value fLuc/hRluc induced by stimulation with an odorous substance by a value fLuc/hRluc of a cell not stimulated with the odorous substance was obtained as fold increase, which was used as an index of the response intensity. A dose-response curve was analyzed using Graph Pad Prism.
The medium was removed from each of the cultures of the olfactory receptor expressing cells produced according to Reference Example 1, and an odorous substance (muscone, guaiacol or p-cresol) was added thereto. A DMEM medium (Nacalai) containing muscone or guaiacol was added to a 384-well plate containing the culture by 30 μL per well (to a final concentration of muscone of 100 μM and of guaiacol of 1 mM). Alternatively, a CD293 medium (Invitrogen) containing p-cresol was added to a 96-well plate containing the culture by 75 μL per well (to a final concentration of 1 mM). […]
(Reporter assays use an easily measured gene product as a stand-in for the process of interest.)

A further test has as its target T2, OR1A1 (Homo sapiens, UniProt Q9P1Q5).
T2 construct: expressed in transfected cells; host or cells: HEK293
T2 sequence (Q9P1Q5 1-309): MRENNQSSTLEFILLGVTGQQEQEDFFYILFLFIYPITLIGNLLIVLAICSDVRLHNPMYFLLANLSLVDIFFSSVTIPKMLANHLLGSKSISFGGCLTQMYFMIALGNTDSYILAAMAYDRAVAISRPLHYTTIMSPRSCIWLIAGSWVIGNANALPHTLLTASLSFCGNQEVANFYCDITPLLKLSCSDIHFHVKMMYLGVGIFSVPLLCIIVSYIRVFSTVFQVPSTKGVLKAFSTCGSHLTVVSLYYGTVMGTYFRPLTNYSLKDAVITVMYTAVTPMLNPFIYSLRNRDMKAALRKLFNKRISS
As to the kind of experiment: Luciferase reporter gene assay, OR1A1-expressing HEK293 cells. As to conditions: screen, muscone 100 μM, FIG. 1. The format is cell-based.
From the text: as §1, §2
In 2) of Example 1 and Examples 2 and 3, HEK293 cells in which the human olfactory receptor OR5AN1, OR10G4, OR9Q2 or OR1A1 was expressed were produced. […]
The olfactory receptor expressed on the HEK293 cells increases the intracellular cAMP amount by activating adenylate cyclase in conjugation with intracellular Gαs. In the measurement of odor response in this study, luciferase reporter gene assay for monitoring the increase of the intracellular cAMP amount as a luminescence value derived from a firefly luciferase gene (fluc2P-CRE-hygro) was employed. […] Under each of various stimulation conditions, a value fLuc/hRluc obtained by dividing a firefly luciferase-derived luminescence value by a Renilla luciferase-derived luminescence value was calculated. […] A dose-response curve was analyzed using Graph Pad Prism. […]

Another test deals with T3, OR10G4 (Homo sapiens, UniProt Q8NGN3).
T3 construct: expressed in transfected cells; host or cells: HEK293
T3 sequence (Q8NGN3 1-311): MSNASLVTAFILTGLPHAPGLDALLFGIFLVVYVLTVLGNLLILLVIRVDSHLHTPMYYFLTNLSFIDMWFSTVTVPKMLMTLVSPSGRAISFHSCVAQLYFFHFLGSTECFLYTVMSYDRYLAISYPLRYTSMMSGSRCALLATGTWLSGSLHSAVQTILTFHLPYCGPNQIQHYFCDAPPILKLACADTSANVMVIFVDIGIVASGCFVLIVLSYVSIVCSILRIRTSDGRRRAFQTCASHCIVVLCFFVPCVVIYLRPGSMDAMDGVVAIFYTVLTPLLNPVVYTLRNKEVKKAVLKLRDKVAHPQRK
Nature of the test: Luciferase reporter gene assay, OR10G4-expressing HEK293 cells. The test is classed as cell-based. As to conditions: FIG. 5A, 5C.
From the text: as §1, §2, §3
as §4, with “For measuring the activity of the luciferase, Dual-Glo(™) Luciferase Assay System (Promega) was used, and the measurement was performed in accordance with the operation instruction of the product.” left out, “A value obtained by dividing a value fLuc/hRluc induced by stimulation with an odorous substance by a value fLuc/hRluc of a cell not stimulated with the odorous substance was obtained as fold increase, which was used as an index of the response intensity.” left out, “Prism. […]” for “Prism.”

A further test has as its system odor of p-cresyl acetate. As to the kind of experiment: Sensory test of cross-adaptation, target odor p-cresyl acetate. The test is classed as in vivo, human. The note with it: panelists.
Test [1] concerns odor of p-cresyl isobutyrate. Nature of the test: Sensory test of cross-adaptation, target odor p-cresyl isobutyrate. The format is in vivo, human. As to conditions: panelists.

Here are results for one compound from patent US10738101B2, “Method for selecting odor-controlling substance” (Kao Corporation, priority 2015, dated 2020).

The structures appear in SMILES notation.

On to `C[C@@H]1CCCCCCCCCCCCC(=O)C1` [muscone, (R)-3-methyl-1-cyclopentadecanone], for which the “activation of OR5AN1 response (fold increase)” value on OR5AN1 (0.3 μM to 100 μM, vs Mock cells, FIG. 3) was “activating the response”. Besides, on OR5AN1 (screen of 370 human olfactory receptors, muscone 100 μM, FIG. 1), the “responsiveness of OR5AN1 among 370 olfactory receptors (response intensity, fold increase)” value is given as “highest responsiveness”. Besides, the “responsiveness of OR1A1 compared with OR5AN1” value on OR1A1 is listed as “weaker responsiveness”. Further, the “responsiveness of OR10G4 (fold increase)” value at OR10G4 is “do not have responsiveness”. Also, in the test with odor of p-cresyl acetate, the “cross-adaptation of p-cresyl acetate odor induced by test substance” value is recorded as “did not induce the cross-adaptation”. The “cross-adaptation of p-cresyl isobutyrate odor induced by test substance” value in test [1] was “did not induce the cross-adaptation”.
